Results on five molecules are retold here after BindingDB's records for doi:10.1021/acs.jmedchem.6b00275 (University of Washington, 2016).

Some results are limits rather than exact numbers.

The target of one data set is T1, Cytochrome P450 2C8 (Homo sapiens, UniProt P10632).
T1 sequence (P10632 whole entry): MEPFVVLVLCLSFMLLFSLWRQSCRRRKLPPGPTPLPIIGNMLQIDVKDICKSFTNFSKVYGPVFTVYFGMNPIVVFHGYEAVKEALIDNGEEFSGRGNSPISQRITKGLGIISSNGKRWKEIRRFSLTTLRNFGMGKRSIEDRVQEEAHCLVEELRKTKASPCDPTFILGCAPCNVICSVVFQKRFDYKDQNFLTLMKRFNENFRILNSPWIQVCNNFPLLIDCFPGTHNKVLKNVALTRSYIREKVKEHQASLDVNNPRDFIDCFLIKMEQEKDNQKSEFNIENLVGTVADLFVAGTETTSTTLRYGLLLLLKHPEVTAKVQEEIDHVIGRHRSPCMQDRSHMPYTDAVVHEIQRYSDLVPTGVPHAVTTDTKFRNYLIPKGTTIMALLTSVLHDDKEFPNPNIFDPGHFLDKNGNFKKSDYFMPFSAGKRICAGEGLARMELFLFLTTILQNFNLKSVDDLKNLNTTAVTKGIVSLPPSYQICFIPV
In words: Inhibition of CYP2C8 in human liver microsomes using isoform-specific probe substrates in presence of NADPH-generating system by LC-MS analysis.

For the next data set, the target named is T2, Cytochrome P450 2B6 (Homo sapiens, UniProt P20813).
T2 sequence (P20813 whole entry): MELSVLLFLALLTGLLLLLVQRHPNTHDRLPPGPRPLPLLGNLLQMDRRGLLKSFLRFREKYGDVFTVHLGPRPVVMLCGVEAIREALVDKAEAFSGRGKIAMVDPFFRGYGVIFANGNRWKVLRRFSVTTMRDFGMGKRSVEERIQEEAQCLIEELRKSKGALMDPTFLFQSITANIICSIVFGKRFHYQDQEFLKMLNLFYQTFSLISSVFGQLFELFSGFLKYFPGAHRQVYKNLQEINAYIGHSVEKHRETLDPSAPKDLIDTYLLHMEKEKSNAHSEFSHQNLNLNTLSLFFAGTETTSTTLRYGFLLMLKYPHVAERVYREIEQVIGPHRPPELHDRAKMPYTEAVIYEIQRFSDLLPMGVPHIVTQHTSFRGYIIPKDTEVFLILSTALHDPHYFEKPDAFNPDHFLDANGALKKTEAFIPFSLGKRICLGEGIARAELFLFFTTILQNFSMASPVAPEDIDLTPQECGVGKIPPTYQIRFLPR
As to the kind of experiment: Inhibition of CYP2B6 in human liver microsomes using isoform-specific probe substrates in presence of NADPH-generating system by LC-MS analysis.

The target in the next data set is Cytochrome P450 2C19 (Homo sapiens, UniProt P33261). In words: Inhibition of CYP2C19 in human liver microsomes using isoform-specific probe substrates in presence of NADPH-generating system by LC-MS analysis.
The next data set has as its target Cytochrome P450 2D6 (Homo sapiens, UniProt P10635). In words: Inhibition of CYP2D6 in human liver microsomes using isoform-specific probe substrates in presence of NADPH-generating system by LC-MS analysis.
Data set [1] deals with Dihydroorotate dehydrogenase (quinone), mitochondrial (Rattus norvegicus, UniProt Q63707). As to the kind of experiment: Inhibition of N-terminal His6-tagged rat DHODH expressed in Escherichia coli BL21 expressed in Escherichia coli BL21 using L-DHO as substrate and CoQ as co-substrate by DCIP dye based spectrophotometric assay.
For the next data set, the target named is T3, Cytochrome P450 1A2 (Homo sapiens, UniProt P05177).
T3 sequence (P05177 whole entry): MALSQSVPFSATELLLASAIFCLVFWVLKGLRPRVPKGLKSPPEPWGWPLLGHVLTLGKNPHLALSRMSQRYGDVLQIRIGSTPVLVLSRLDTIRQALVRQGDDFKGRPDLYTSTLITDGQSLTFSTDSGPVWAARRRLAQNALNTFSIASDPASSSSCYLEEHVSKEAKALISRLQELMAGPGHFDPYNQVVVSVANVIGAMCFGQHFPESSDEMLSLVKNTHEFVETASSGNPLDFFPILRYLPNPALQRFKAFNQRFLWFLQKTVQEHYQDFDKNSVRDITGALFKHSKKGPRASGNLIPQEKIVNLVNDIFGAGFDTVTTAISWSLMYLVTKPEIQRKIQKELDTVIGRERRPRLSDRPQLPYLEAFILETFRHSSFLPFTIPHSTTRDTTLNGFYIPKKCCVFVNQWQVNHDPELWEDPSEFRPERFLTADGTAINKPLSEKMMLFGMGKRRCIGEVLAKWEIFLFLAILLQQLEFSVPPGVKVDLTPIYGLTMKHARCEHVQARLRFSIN
As to the kind of experiment: Inhibition of CYP1A2 in human liver microsomes using isoform-specific probe substrate in presence of NADPH-generating system by LC-MS analysis.

Another data set addresses Cytochrome P450 2C9 (Homo sapiens, UniProt P11712). In words: Inhibition of CYP2C9 in human liver microsomes using isoform-specific probe substrates in presence of NADPH-generating system by LC-MS analysis.
The target of the next data set is Cytochrome P450 3A4 (Homo sapiens, UniProt P08684). As to the kind of experiment: Inhibition of CYP3A4 in human liver microsomes using isoform-specific probe substrates in presence of NADPH-generating system by LC-MS analysis.
Data set [2] addresses Dihydroorotate dehydrogenase (quinone), mitochondrial (Homo sapiens, UniProt Q02127). In words: Inhibition of N-terminal His6-tagged human DHODH expressed in Escherichia coli BL21 using L-DHO as substrate and CoQ as co-substrate by DCIP dye based spectrophotometric assay.

Chain of Cytochrome P450 2C9 (P11712 whole entry, canonical isoform): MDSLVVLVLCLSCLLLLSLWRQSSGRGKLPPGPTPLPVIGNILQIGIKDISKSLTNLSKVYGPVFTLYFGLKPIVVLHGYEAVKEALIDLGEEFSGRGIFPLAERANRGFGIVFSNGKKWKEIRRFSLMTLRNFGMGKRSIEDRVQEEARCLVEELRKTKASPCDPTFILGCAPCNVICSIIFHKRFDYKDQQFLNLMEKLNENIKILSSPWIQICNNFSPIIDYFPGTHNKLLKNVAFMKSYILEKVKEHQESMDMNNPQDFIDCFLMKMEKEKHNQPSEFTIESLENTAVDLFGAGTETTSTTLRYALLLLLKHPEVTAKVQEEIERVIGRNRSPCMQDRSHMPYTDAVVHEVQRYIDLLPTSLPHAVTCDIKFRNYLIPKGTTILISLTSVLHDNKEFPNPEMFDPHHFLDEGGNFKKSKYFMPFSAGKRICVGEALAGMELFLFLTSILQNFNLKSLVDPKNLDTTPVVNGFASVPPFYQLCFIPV
Chain of Cytochrome P450 2D6 (P10635 whole entry, canonical isoform): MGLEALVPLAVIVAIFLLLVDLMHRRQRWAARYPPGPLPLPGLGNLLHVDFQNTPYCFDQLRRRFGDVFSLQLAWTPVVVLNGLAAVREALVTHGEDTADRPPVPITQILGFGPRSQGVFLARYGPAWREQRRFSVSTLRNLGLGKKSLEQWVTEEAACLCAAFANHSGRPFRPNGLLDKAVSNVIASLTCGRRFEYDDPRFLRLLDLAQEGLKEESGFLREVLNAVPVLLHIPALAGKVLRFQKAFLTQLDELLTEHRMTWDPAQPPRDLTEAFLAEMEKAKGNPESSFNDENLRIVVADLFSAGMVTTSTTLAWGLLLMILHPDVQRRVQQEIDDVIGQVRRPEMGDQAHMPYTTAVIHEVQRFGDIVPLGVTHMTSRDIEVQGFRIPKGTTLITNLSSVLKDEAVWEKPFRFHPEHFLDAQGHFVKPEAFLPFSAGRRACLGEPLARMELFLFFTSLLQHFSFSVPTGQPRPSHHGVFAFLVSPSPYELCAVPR
Chain of Dihydroorotate dehydrogenase (quinone), mitochondrial (Rattus norvegicus, UniProt Q63707) (Q63707 whole entry): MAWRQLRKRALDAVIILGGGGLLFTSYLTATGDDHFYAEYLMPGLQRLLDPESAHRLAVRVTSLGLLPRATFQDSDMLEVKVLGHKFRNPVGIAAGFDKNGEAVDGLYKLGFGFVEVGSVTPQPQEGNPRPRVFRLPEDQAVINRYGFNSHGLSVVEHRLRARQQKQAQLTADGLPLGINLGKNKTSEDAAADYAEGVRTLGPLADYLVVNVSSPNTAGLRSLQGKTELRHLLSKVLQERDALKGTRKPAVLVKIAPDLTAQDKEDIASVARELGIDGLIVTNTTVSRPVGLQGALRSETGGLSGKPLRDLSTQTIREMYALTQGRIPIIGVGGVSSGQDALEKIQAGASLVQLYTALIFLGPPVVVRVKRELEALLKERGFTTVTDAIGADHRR
Chain of Dihydroorotate dehydrogenase (quinone), mitochondrial (Homo sapiens, UniProt Q02127) (Q02127 whole entry): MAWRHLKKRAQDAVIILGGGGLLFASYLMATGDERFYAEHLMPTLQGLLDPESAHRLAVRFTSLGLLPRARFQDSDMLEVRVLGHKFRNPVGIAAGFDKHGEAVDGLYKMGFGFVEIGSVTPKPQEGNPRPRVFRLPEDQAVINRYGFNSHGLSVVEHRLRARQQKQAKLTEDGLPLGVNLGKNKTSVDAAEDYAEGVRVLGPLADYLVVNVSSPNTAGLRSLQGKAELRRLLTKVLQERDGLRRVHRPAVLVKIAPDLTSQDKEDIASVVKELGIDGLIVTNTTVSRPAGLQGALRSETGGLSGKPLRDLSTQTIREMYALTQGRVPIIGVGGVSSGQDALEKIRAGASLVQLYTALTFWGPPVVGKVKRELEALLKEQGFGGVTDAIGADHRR
Chain of Cytochrome P450 2C19 (P33261 whole entry, canonical isoform): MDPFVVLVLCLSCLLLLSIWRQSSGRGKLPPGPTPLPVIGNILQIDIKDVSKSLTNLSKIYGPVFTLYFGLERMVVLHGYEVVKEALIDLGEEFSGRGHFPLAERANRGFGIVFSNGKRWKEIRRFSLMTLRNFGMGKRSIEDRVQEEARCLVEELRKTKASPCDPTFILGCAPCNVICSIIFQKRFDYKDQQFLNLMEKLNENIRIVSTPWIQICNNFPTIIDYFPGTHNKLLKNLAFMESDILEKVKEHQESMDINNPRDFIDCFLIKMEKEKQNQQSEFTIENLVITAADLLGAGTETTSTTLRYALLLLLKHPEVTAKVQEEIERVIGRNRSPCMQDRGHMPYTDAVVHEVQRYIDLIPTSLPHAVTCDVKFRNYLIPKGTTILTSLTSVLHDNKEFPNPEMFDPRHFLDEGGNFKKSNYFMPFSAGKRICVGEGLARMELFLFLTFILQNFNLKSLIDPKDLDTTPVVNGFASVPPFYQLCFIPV
Chain of Cytochrome P450 3A4 (P08684 whole entry, canonical isoform): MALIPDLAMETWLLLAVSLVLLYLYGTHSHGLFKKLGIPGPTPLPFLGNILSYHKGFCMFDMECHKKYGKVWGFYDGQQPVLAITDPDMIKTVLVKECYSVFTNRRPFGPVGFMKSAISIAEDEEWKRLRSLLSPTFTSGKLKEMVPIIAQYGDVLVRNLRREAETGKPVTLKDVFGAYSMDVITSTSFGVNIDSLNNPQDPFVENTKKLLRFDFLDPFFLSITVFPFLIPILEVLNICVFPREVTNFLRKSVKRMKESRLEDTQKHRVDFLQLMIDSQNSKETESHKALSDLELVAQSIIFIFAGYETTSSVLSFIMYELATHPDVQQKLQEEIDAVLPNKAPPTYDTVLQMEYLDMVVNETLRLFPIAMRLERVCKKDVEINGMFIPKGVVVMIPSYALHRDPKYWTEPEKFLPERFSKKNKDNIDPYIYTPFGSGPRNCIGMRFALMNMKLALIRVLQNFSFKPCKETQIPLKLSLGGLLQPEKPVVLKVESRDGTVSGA

Take `Cc1cc(N[C@H]2CCc3ccc(Br)cc3C2)n2nc(C(C)(F)F)nc2n1`: the concentration for half-maximal inhibition (IC50) on Cytochrome P450 2C8 was 16.9 µM; at Cytochrome P450 2B6, over 20 µM; on Cytochrome P450 2C19, over 20 µM; at Cytochrome P450 2D6, 3.9 µM; in [1] it was over 100 µM; on Cytochrome P450 1A2, over 20 µM. For the same molecule, the IC50 was 3.1 µM at Cytochrome P450 2C9 and over 20 µM on Cytochrome P450 3A4.
As for `Cc1cc(NC2CCc3cc(Br)ccc3C2)n2nc(C(C)(F)F)nc2n1` (stereo unspecified), the half-inhibitory concentration (IC50) in data set [2] is over 100 µM; at Cytochrome P450 2C8 it was 18.7 µM; at Cytochrome P450 2B6 it was 17.7 µM; at Cytochrome P450 2C19 it was over 20 µM; at Cytochrome P450 2D6, over 20 µM; in data set [1] it was over 100 µM. For the same molecule, the IC50 is over 20 µM at Cytochrome P450 1A2 and 8.7 µM on Cytochrome P450 2C9.
`Cc1cc(NC2CCc3cc(Cl)ccc3C2)n2nc(C(C)(F)F)nc2n1` (stereo unspecified): the IC50 in data set [2] was over 100 µM; on Cytochrome P450 2C8, over 20 µM; on Cytochrome P450 2B6, 18.4 µM; at Cytochrome P450 2D6, 20 µM; in data set [1], over 100 µM; on Cytochrome P450 1A2, over 20 µM. Also, the half-maximal inhibitory concentration (IC50) was 10.2 µM at Cytochrome P450 2C9 and over 20 µM at Cytochrome P450 3A4.
On to `COc1ccc2c(c1)CC(Nc1cc(C)nc3nc(C(C)(F)F)nn13)CC2` (stereo unspecified), for which the half-inhibitory concentration (IC50) in data set [2] is over 100 µM.
`Cc1cc(NC2CCc3ccc(Cl)cc3C2)n2nc(C(F)(F)F)nc2n1` (stereo unspecified): the IC50 in data set [2] is over 50 µM.
